Data from patent US11781119B2, “Variant forms of urate oxidase and use thereof” (Horizon Therapeutics USA, Inc., priority 2005, dated 2023).

Experiments:
Type in all cases: biochemical
Conditions in all cases: uric acid; sodium borate buffer, pH 9.2
[1] = tested on: Pig-baboon chimera (PBC) uricase variant PBC-ΔNC, recombinant, N-terminal six residues and C-terminal tri-peptide removed, SEQ ID NO. 12
Description: (§1) Activity of uricase was measured by a UV method. […] Uricase potency is expressed in activity units per mg protein (U/mg).
(§2) The absorbance change with time (ΔA292 per minute) was derived from the linear portion of the curve.
(§3) The specific activity (potency) of uricase was calculated by dividing the activity in U/ml with protein concentration in mg/ml.

[2] = target: T1, Aspergillus flavus uricase, native, commercial preparation (Merck) (Aspergillus flavus, UniProt Q00511)
T1 sequence (Q00511 1-302): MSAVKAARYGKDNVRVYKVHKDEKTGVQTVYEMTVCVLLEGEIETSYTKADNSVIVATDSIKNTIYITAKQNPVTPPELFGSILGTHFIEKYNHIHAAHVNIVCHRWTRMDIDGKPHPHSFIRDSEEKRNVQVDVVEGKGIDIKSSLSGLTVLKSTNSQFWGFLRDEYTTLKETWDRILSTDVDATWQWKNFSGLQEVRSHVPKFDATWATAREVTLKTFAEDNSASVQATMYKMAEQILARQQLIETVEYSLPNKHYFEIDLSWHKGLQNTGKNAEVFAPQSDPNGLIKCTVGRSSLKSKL
Description: as §1, §2, §3

[3] = tested on: Pig-baboon chimera (PBC) uricase, recombinant, pig uricase codons 1-225 joined in-frame to codons 226-304 of baboon uricase
Description: Pig-baboon chimera (PBC) uricase was constructed in order to gain higher expression, stability, and activity of the recombinant gene. […] The PBC uricase cDNA consists of the pig uricase codons 1-225 joined in-frame to codons 226-304 of baboon uricase.

[4] = target: T2, Pig uricase, native, commercial preparation (Sigma) (Sus scrofa, UniProt P16164)
T2 sequence (P16164 1-304): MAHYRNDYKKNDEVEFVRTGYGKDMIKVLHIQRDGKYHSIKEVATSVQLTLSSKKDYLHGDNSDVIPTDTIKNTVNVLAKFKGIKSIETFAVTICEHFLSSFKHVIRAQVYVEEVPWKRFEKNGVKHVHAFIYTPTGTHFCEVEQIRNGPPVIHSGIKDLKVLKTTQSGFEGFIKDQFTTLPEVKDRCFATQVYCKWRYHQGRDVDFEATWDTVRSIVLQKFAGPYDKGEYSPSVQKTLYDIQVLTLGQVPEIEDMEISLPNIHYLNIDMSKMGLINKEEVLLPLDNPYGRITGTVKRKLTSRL
Description: as §1, §2, §3

## O=c1[nH]c(=O)c2[nH]c(=O)[nH]c2[nH]1 [Uric Acid, uric acid]
[1]
  Km: 4.3 µM
[2]
  Km: 23.5 µM
[3]
  Km: 4.87 µM
[4]
  Km: 5.85 µM
